Converted amounts (≈) assume the structure as drawn. Read-outs that look alike come from different tables or passages of the source.
Tests used:
host cells of the virus = experiment: Cell toxicity to the host cells of the virus at 10 μM; format: cell-based
HIV-1 = experiment: Inhibitory activity against HIV-1 (literature method, Chen et al. J Virol 1997); details: for Anti-HIV (%, 1.0 μM): compound at 1.0 μM; for inhibition at 1 µM: Human immunodeficiency virus 1, read-out: Anti-HIV (%, 1.0 μM); for EC50: Human immunodeficiency virus 1; for Therapeutic index (TI) = 50% cytotoxicity doses/50% effective dose: value in brackets after EC50
Description: Inhibitory activity of the coumarin derivatives of the present invention against HIV-1.
Inhibitory activity of the compounds against HIV-1 is assayed using the literature method. The experimental conditions, procedures, reagents and so on of the experiment are referred to the reference of “ZHIWEI CHEN, PEI ZHOU, DAVID D. HO, et al. Genetically divergent strains of simian immuno-deficiency virus use CCR5 as a coreceptor for entry. Journal of Virology, 1997, 71(4): 2705-2714”.

[1] = tested on: Mycobacterium tuberculosis H37Rv (ATCC 27294); experiment: Microplate Alamar Blue Assay (MABA) in BACTEC 12B medium (TAACF screen); format: cell-based
[2] = read-out: anti-TB active compound (MIC90 less than 10 μg/mL), classification

Structure (SMILES) | melting point [°C] | Cell toxicity (10 μM) (host cells of the virus) | inhibition at 1 µM (HIV-1) [%] | IC50 [1] [µg/mL] | MIC90 ([1]; MABA, H37Rv, read-out: MIC90) [µg/mL] | other results
CCCc1cc(=O)oc2c3c(c4c(c12)OC(C)(C)C=C4)OC(C)CC3O (single isomer, unassigned; (+)) [(+)-11-demethyl Calanolide A, reference compound] |  |  |  |  |  | Cell toxicity (10 μM) (host cells of the virus; class symbol, share of host cells of the virus died at 10 μM compound): ++ (10-80%); Cell toxicity (10 μM), number printed before the class symbol (host cells of the virus; host cells of the virus died at 10 μM compound): 54%; Anti-HIV (%, 1.0 μM) (HIV-1): 75%
CC1CC(=O)c2c(c3c(c4c(CN5CCN(C)CC5)cc(=O)oc24)OC(C)(C)C=C3)O1 (stereo not shown) [Example 7, 6,6,10-trimethyl-4-p-methylpiperazidinylmethylene-10,11-dihydro-6H-[2,3-f:2′,3′-h]-tri pyranyl-2,12-dione] | 238 to 239 | − | 48.3 |  |  | 
CCc1cc(=O)oc2c3c(c4c(c12)OC(C)(C)C=C4)OC(C)CC3=O (stereo not shown) [Example 9] |  | − | 73.2 |  |  | EC50 (HIV-1): 270 nM; Therapeutic index (TI) = 50% cytotoxicity doses/50% effective dose (HIV-1): > 1000
CCCc1cc(=O)oc2c1c1c(c3occc(=O)c32)C=CC(C)(C)O1 [Example 13, 6,6-dimethyl-4-n-propyl-2H,6H,12H-benzo[1,2-b:3,4-b′:5,6-b″]-tripyranyl-2,12-dione] | 102 to 104 | − | 64.9 |  |  | 
CCCc1cc(=O)oc2c3c(c4c(c12)OC(C)(C)C=C4)OC(c1ccc(C)cc1)CC3=O (stereo not shown) [Example 17, 6,6-dimethyl-4-n-propyl-10-p-methyl-phenyl-2H,6H,12H-benzo[1,2-b:3,4-b′:5,6-b″]-tripyranyl-2,12-dione] | 174 to 176 | − | 57 |  |  | 
CCCc1cc(=O)oc2c3c(c4c(c12)OC(C)(C)C=C4)O[C@@H]1CCCC[C@H]1C3=O [Example 18, 6,6-dimethyl-4-n-propyl-10,11-trans-cyclohexyl-2H,6H,12H-benzo[1,2-b:3,4-b′:5,6-b″]-tripyranyl-2,12-dione] | 151 to 153 |  | 40 | 46.8 (≈ 119 µM) | > 100 | 
CCCc1cc(=O)oc2c3c(c4c(c12)OC(C)(C)C=C4)O[C@@H]1CCCC[C@@H]1C3=O [Example 19, 6,6-dimethyl-4-n-propyl-10,11-cis-cyclohexyl-2H,6H,12H-benzo[1,2-b:3,4-b′:5,6-b″]-tripyranyl-2,12-dione] | 156 to 159 |  | 59.3 | 7.95 (≈ 20.1 µM) | 11.2 (≈ 28.5 µM) | 
CCCc1c(Cl)c(=O)oc2c3c(c4c(c12)OC(C)(C)C=C4)OC(C)CC3=O (stereo not shown) [Example 20, 6,6,10-trimethyl-3-chrolo-4-n-propyl-2H,6H,12H-benzo[1,2-b:3,4-b′:5,6-b″]-tripyranyl-2,12-dione] |  | − | 68.1 |  |  | EC50 (HIV-1): 370 nM; Therapeutic index (TI) = 50% cytotoxicity doses/50% effective dose (HIV-1): 243-730
COc1cc(-c2cc(=O)oc3c4c(c5c(c23)OC(C)(C)C=C5)OC(C)CC4=O)cc(OC)c1OC (stereo not shown) [Example 24, 6,6,10-trimethyl-4-(3,4,5-trimethoxyl)-phenyl-2H,6H,12H-benzo[1,2-b:3,4-b′:5,6-b″]-tripyranyl-2,12-dione] | 129 to 131 | − | 58 |  |  | 
CC1CC(=O)c2c(c3c(c4c5c(c(=O)oc24)CCCC5)OC(C)(C)C=C3)O1 (stereo not shown) [Example 27, 6,6,10-trimethyl-3,4-cyclohexyl-2H,6H,12H-benzo[1,2-b:3,4-b′:5,6-b″]-tripyranyl-2,12-dione] | 121 to 123 | − | 67 |  |  | 
CCCc1cc(=O)oc2c3c(c4c(c12)OC(C)(C)C=C4)OC(C)CC3=O (stereo not shown) [Example 29, 6,6,10-trimethyl-4-n-propyl-2H,6H,12H-benzo[1,2-b:3,4-b′:5,6-b″]-tripyranyl-2,12-dione] | 112 to 115 | − |  |  |  | Anti-HIV (%, 1.0 μM) (HIV-1): 73.1%
CCc1cc(=O)oc2c3c(c4c(c12)OC(c1ccccc1)C=C4)OC(C)CC3=O (stereo not shown) [Example 45] | 126 to 128 |  | 96.4 | 2.01 (≈ 5.18 µM) | 2.73 (≈ 7.02 µM) | MIC90 [1, 2]: < 10 µg/mL
CCCCC1C=Cc2c3c(c4oc(=O)cc(CC)c4c2O1)C(=O)CC(C)O3 (stereo not shown) [Example 46] | 119 to 121 |  | 96.7 | 0.276 (≈ 0.749 µM) | 0.716 (≈ 1.94 µM) | MIC90 [1, 2]: < 10 µg/mL
CCCC1C=Cc2c3c(c4oc(=O)cc(CC)c4c2O1)C(=O)CC(C)O3 (stereo not shown) [Example 47] | 119 to 121 |  | 97 | 1.49 (≈ 4.21 µM) | 1.73 (≈ 4.88 µM) | MIC90 [1, 2]: < 10 µg/mL
CCCc1c(Cl)c(=O)oc2c3c(c4c(c12)OC(c1ccccc1)C=C4)OC(C)CC3=O (stereo not shown) [Example 50, 1-methyl-4-n-propyl-3-chloro-6-phenyl-2H,6H,12H-benzo[1,2-b:3,4-b′:5,6-b″]-tripyranyl-12-dione] | 152 to 154 |  | 96.3 | 6.07 (≈ 13.9 µM) | 6.7 (≈ 15.3 µM) | MIC90 [1, 2]: < 10 µg/mL
CCCc1cc(=O)oc2c3c(c4c(c12)OC(C)(C)C=C4)OC(CBr)CC3=O (stereo not shown) [Example 57] |  | − | 93.5 | 0.825 (≈ 1.9 µM) | 1.75 (≈ 4.05 µM) | EC50 (HIV-1): 2.85 nM; anti-HIV-1 activity in vitro compared to (+)-calanolide A (HIV-1; in words): much higher inhibitory activity; therapeutic index, in words (HIV-1; in words): high therapeutic index; Therapeutic index (TI) = 50% cytotoxicity doses/50% effective dose (HIV-1): > 10526
CCCCC1C=Cc2c3c(c4oc(=O)cc(CCC(F)(F)F)c4c2O1)C(=O)CC(C)O3 (stereo not shown) [Example 73, 4-(3,3′,3″-trifluoro-n-propyl)-6-n-butyl-10-methyl-2H,6H,12H-benzo[1,2-b:3,4-b′: 5,6-b″]-tripyranyl-2,12-dione] | 129 to 130 | − | 53.6 |  |  | 
CCCc1cc(=O)oc2c3c(c4c(c12)OC(C)C=C4)OCC(C)C3=O (stereo not shown) [Example 75, 6,11-dimethyl-4-n-propyl-2H,6H,12H-benzo[1,2-b:3,4-b′:5,6-b″]-tripyranyl-2,12-dione] | 135 to 137 |  | 62.4 | 1 (≈ 2.95 µM) | 1.89 (≈ 5.56 µM) | MIC90 [1, 2]: < 10 µg/mL
C/C=C/C1C=Cc2c3c(c4oc(=O)cc(CCC)c4c2O1)C(=O)C(C)CO3 (stereo not shown) [Example 76, 4-n-propyl-6-propenyl-11-methyl-2H,6H,12H-benzo[1,2-b:3,4-b′:5,6-b″]-tripyranyl-2,12-dione] | 165 to 166 | − | 37.8 |  |  | 
CCCc1c(Cl)c(=O)oc2c3c(c4c(c12)OC(C)C=C4)OC(C)CC3=O (stereo not shown) [Example 81, 6,10-dimethyl-4-n-propyl-3-chloro-2H,6H,12H-benzo[1,2-b:3,4-b′:5,6-b″]-tripyranyl-2,12-dione] | 129 to 131 | − | 55.7 |  |  | 
C/C=C/C1C=Cc2c3c(c4oc(=O)c(Cl)c(CCC)c4c2O1)C(=O)CC(C)O3 (stereo not shown) [Example 86, 4-n-propyl-6-propenyl-3-chloro-10-methyl-2H,6H,12H-benzo[1,2-b:3,4-b′:5,6-b″]-tripyranyl-2,12-dione] | 142 to 144 | − | 57.3 |  |  | 
CCCc1c(Cl)c(=O)oc2c3c(c4c(c12)OCC(C)=C4)OC(C)CC3=O (stereo not shown) [Example 91, 4-n-propyl-3-chloro-7,10-dimethyl-2H,6H,12H-benzo[1,2-b:3,4-b′:5,6-b″]-tripyranyl-2,12-dione] | 129 to 131 | − | 49.1 |  |  | 
CCCc1c(F)c(=O)oc2c3c(c4c(c12)OCC(C)=C4)OC(C)CC3=O (stereo not shown) [Example 92] | 122 to 124 | − | 47.1 |  |  | 
CCCc1cc(=O)oc2c3c(c4c(c12)OC(c1ccccc1[N+](=O)[O-])C=C4)OC(C)CC3=O (stereo not shown) [Example 97] | 216 to 218 | − | 52.6 |  |  | 

— US20100324067A1, “TETRACYCLIC DIPYRANO-COUMARIN COMPOUNDS WITH ANTI-HIV AND ANTI-MYCOBACTERIUM TUBERCULOSIS ACTIVITIES” (priority 2007, published 2010)
